One block for each molecule: values may come before it.
How the values were obtained:
[1] = tested on: bacterial taxa (stool microbiota); assay: Pre-PPI/post-PPI longitudinal study, stool 16S rRNA bacterial community analysis; assay type: in vivo, human; conditions: after 14 days of 40 mg omeprazole daily
Experimental: (§1) The impact of PPI on fungal parameters were analyzed from a prior trial in which 40 mg of omeprazole was administered daily for 14 days in compensated outpatients with cirrhosis and healthy controls, (Bajaj J S, et al. Am J Physiol Gastrointest Liver Physiol 2014 307:G951-G957).
(§2) For all these studies, Shannon diversity indices for both bacterial and fungal taxa as well as LEFSe comparisons (Segata N, et al. Genome Biol 2011 12:R60) at baseline and the end of study were performed and compared.
(§3) Microbial DNA were isolated from stool samples as previously described (Gillevet P, et al. Chem Biodivers 2010 7:1065-75). […] Amplicons for 96 samples were then sequenced together to generate >20,000×400 base reads per sample.
The Microbiome Analysis Center's Portal was used to organize raw data, track clinical metadata, and track analysis between the groups at baseline and/if they develop infections and are resampled. […] The taxonomic identity of reference sequences were determined using the RDP11 Classifier (Wang Q et al. Appl Environ Microbiol 2007 73:5261-7) and QIIME Pipeline. […] Changes in abundance of individual bacterial and fungal taxa were also analyzed using traditional univariate statistical methods. […]

[2] = all subjects, 40 mg daily for 14 days, as reported in prior trial; cited from earlier work
[3] = tested on: fungal taxa (stool mycobiome); assay: Pre-PPI/post-PPI longitudinal study, stool ITS1 fungal community analysis; assay type: in vivo, human; conditions: after 14 days of 40 mg omeprazole daily
Experimental: as §1, §2
Similarly, the ITS1 regions of the fungal 18S ribosomal RNA (rRNA) gene were sequenced on a PGM Ion Torrent Next-generation sequencer using Multitag fusion primers (ITS1F: 5′-[…]-3′ (SEQ ID NO:3); ITS2: 5′-[…]-3′ (SEQ ID NO:4)). Amplicons for 96 samples were sequenced together to generate >10,000×400 base reads per sample. The mycobiome is generally less diverse than the microbiome and thus required fewer reads to interrogate this community (Ghannoum M A, et al. PLoS pathogens 2010 6:e1000713). Greater than 1000 reads for bacteria and greater than 100 reads for fungi were used given the relatively lower abundance of fungal taxa as the lowest number chosen to be acceptable. […] A cutoff of 100 reads per sample was used as that was clearly above the negative control and is the break point in FIG. 6. […]

[4] = Pre-PPI/post-PPI longitudinal study, clinical course; assay type: in vivo, human; conditions: patients with cirrhosis; before 8.1±2.7, p=0.41
Experimental: The impact of PPI on fungal parameters were analyzed from a prior trial in which 40 mg of omeprazole was administered daily for 14 days in compensated outpatients with cirrhosis and healthy controls, (Bajaj J S, et al. Am J Physiol Gastrointest Liver Physiol 2014 307:[…]-[…]).

[5] = tested on: bacterial taxa (stool microbiota); assay: Cross-sectional study of outpatients with cirrhosis, bacterial Shannon diversity; assay type: in vivo, human; conditions: outpatients with cirrhosis on rifaximin without SBP prophylaxis; vs SBPP 1.3±0.5
Experimental: (§4) Healthy controls that were age-matched were enrolled with two sets of patients with cirrhosis, outpatients and inpatients. Healthy controls were outpatients without any chronic diseases or medications. Patients with cirrhosis were included who were diagnosed using liver biopsy, evidence of frank decompensation or radiological features of cirrhosis who were between 21 and 75 years. Patients who were unable to give consent or provide stool within 48 hours of admission, with alcohol misuse, alcoholic hepatitis, on antifungal medications and with gastrointestinal bleeding episodes within 6 weeks were excluded. Also excluded were those undergoing HCV eradication or those on probiotics within the last 3 months. […]
as §3
The Microbiome Analysis Center's Portal was used to organize raw data, track clinical metadata, and track analysis between the groups at baseline and/if they develop infections and are resampled. […] The taxonomic identity of reference sequences were determined using the RDP11 Classifier (Wang Q et al. Appl Environ Microbiol 2007 73:5261-7) and QIIME Pipeline. […]

[6] = tested on: fungal taxa (stool mycobiome); assay: Cross-sectional study of outpatients with cirrhosis, fungal Shannon diversity; assay type: in vivo, human; conditions: outpatients with cirrhosis on rifaximin without SBP prophylaxis; vs SBPP 0.83±0.60
Experimental: as §4
Similarly, the ITS1 regions of the fungal 18S ribosomal RNA (rRNA) gene were sequenced on a PGM Ion Torrent Next-generation sequencer using Multitag fusion primers (ITS1F: 5′-[…]-3′ (SEQ ID NO:3); ITS2: 5′-[…]-3′ (SEQ ID NO:4)). Amplicons for 96 samples were sequenced together to generate >10,000×400 base reads per sample. The mycobiome is generally less diverse than the microbiome and thus required fewer reads to interrogate this community (Ghannoum M A, et al. PLoS pathogens 2010 6:e1000713). Greater than 1000 reads for bacteria and greater than 100 reads for fungi were used given the relatively lower abundance of fungal taxa as the lowest number chosen to be acceptable. […]

- MELD score after therapy [4]: 7.9±3.5
Compound: COc1ccc2[nH]c([S+]([O-])Cc3ncc(C)c(OC)c3C)nc2c1 (centres unmarked) [omeprazole]
- bacterial diversity (Shannon index) post ([1]; healthy controls, pre 1.88±0.16, p=0.004): 1.63±0.22
- bacterial diversity (Shannon index) post ([1]; patients with cirrhosis, pre 1.89±0.25, p=0.05): 1.54±0.34
- tolerability [2]: able to tolerate
- fungal diversity (Shannon index) post ([3]; healthy controls, pre 1.92±0.48, p=0.46): 1.73±0.61
- fungal diversity (Shannon index) post ([3]; patients with cirrhosis, pre 1.64±0.34, p=0.39): 1.45±0.38

Compound: CO[C@H]1/C=C/O[C@@]2(C)Oc3c(C)c(O)c4c(O)c(c5c(nc6cc(C)ccn65)c4c3C2=O)NC(=O)/C(C)=C\C=C\[C@H](C)[C@H](O)[C@@H](C)[C@@H](O)[C@@H](C)[C@H](OC(C)=O)[C@@H]1C [rifaximin]
- bacterial diversity (Shannon index) [5]: 1.32±0.51
- fungal diversity (Shannon index) [6]: 0.77±0.77

— US11253554B2, “Bacterial profile to detect fungal taxa abundance in the gut” (Virginia Commonwealth University, priority 2016, dated 2022)
